# Reference: US11396497B2, “Proteasome inhibitors” (New Mexico Tech University Research Park Corporation, priority 2018, dated 2022)
# Read-outs that look alike come from different tables or passages of the source.
# Legend:
# Jurkat cells = test: Apoptosis assay (Annexin V-FITC, flow cytometry); assay type: cell-based, human
# Procedure: Apoptosis assay: 1 mL of Jurkat cells, at a density of 500,000 cells per milliliter, was added to 12 wells of a 24 well microtiter plate. Cells were treated immediately using a serial dilution of the synthesized proteasome inhibitors, the benzyl ester of Cystargolide B and the belactosin-cystargolide hybrid molecule. 10 μM Paclitaxel and 0.2 μg/mL Doxorubicin hydrochloride were used as positive apoptosis controls and non-treated cells were used as a negative control. The cells were then incubated for 24 h at 37° C. and 5% CO2. The following day, Annexin V-FITC conjugate was used to assay for the expression of phosphatidyl serine on the […] of the cellular membrane. The cells were briefly pelleted, aspirated, and resuspended in 300 μL of a reaction mixture containing 0.2 μL/mL of the Annexin V FITC solution, 2 mM CaCl2 to enable binding, and 2 μg/mL propidium iodide as an indicator of cell permeability. Each sample was incubated at 37° C. for 20 minutes, and then analyzed by flow cytometry. Single, whole cells were selected based on the forward and the side-scatter. With an excitation of 488 nm Annexin V-FITC binding was identified using FL1 533 nm emission. Propidium iodide staining was selected based on FL2 585 nm emission. […] Measurements were taken in biological triplicate for each sample, and the results were confirmed in technical triplicate.
# [1] = system: ubiquitinated proteins in MCF7 cells; test: Western blot of ubiquitinated proteins; assay type: cell-based, human
# Procedure: The cells were incubated for 9.5 hrs at 37° C. and 5% CO2. After washing with PBS twice, cells were scraped, pelleted and lysed with CytoBuster™ Protein Extraction Reagent \ containing 10 μM compound 8, 10 μM Na3VO4, 0.017 mg/mL Aprotinin, 1 mM PMSF, and 1% Protease Inhibitor Cocktail. Thereafter 30 μg of protein in sample buffer (50 mM Tris-HCl, 2% SDS, 10% Glycerol, 1% β-mercaptoethanol, 12.5 mM EDTA, 0.02% Bromophenol Blue, pH 6.8) that had been boiled at 90° C. for 5 min, was electrophoresed using 6/8% SDS-PAGE, and the protein transferred to a […] PVDF membrane using a BioRad Trans-Blot® SD at 15 V for 17 minutes. The membrane was blocked with 1× casein buffer (Diluted 1:10 in water from casein blocking buffer 10×), and probed with either the polyclonal rabbit anti β-Actin (1:500) or the polyclonal rabbit anti-ubiquitin antibody (1:300), and stained with goat anti-rabbit IgG (H+L) HRP conjugate (1:3000) secondary antibodies. Antibody-recognized bands were visualized by a standard horseradish peroxidase chemiluminescent assay with an ECL kit.
# [2] = molecular target: T1, chymotrypsin-like activity of the 26S proteasome (Homo sapiens, UniProt P28074); test: Proteasome assay, chymotrypsin-like (ChT-L) activity, Suc-LLVY-AMC, Jurkat cell lysate; assay type: biochemical
# T1 construct: endogenous in cells; host or cells: Jurkat (ATCC TIB-152, E6-1 clone) cell lysate
# T1 sequence (P28074 60-263): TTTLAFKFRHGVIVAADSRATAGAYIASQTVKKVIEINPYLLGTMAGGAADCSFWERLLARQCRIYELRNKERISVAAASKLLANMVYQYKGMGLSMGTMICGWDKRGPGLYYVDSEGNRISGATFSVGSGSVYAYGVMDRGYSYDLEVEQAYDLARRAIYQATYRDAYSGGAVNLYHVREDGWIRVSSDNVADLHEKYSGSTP
# Procedure: The lysate was stored at −80° C. until the sample was used for the proteasome assay.
# The compounds were diluted with lysis buffer; 10 μL of the compound-containing solution was added to the test wells at ten times the final concentration. […] The results are reported as the average of at least 3 technical replicates of IC50 values for proteasome inhibition.
compound,measurement,setting,value
"CC[C@H](C)[C@@H]1C(=O)O[C@H]1C(=O)N[C@H](C(=O)N[C@H](C(=O)OCc1ccccc1)C(C)C)C(C)C [Compound 8, Benzyl ((2R,3S)-3-((S)-sec-butyl)-4-oxooxetane-2-carbonyl)-L-valyl-L-valinate]",induction of apoptosis,Jurkat cells,induction of apoptosis
same,accumulation of ubiquitinated proteins,[1],accumulation of ubiquitinated proteins
same,IC50,[2],7.1 ± 2.8 nM
same,IC50,"[2]; Table 5, ± S.D., read-out: Proteasome Inhib. ChT-L IC50",7 ± 0.311 nM
